Molecular target: MAGE-A11:PCF11 (Homo sapiens (Human), UniProt P43364)
Experiment: TR-FRET single point screening at 15 μM
Assay type: binding
Set-up: unit not given here
Summary of the method: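 Competition TR-FRET: compounds at final 15 μM mixed with 200 nM FAM-PCF11_4, 5 nM GST-MAGEA11 and 5 nM Tb-anti-GST in Tris pH 7.5/MgCl2/BSA/DTT buffer, room temperature, 90 min. Emission ratio 520/490 nm (340 nm excitation) expressed as % inhibition relative to positive and negative controls.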

[1] = single point TR-FRET screening of quinoline compounds against MAGE-A11:PCF11, 15 μM
[2] = single point TR-FRET screening at 15 μM against MAGE-A11:PCF11

Chain of MAGE-A11:PCF11 (P43364 218-429): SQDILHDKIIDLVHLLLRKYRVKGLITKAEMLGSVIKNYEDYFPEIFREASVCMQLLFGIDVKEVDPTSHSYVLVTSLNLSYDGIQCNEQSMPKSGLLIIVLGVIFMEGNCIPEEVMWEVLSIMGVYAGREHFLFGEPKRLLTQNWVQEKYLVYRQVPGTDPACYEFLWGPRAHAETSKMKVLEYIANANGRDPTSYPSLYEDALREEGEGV

SMILES | TR-FRET signal [1] | TR-FRET signal [2]
Clc1ccc2c(NCCCNCc3ccoc3)ccnc2c1 [SJ000520913] | −11.15 | –
COc1ccc2nc3cc(Cl)ccc3c(NCCCNCc3ccc4[nH]ccc4c3)c2c1 [SJ000520914] | – | −184.2
COc1ccc2nc3cc(Cl)ccc3c(NCCCNCc3c(F)cccc3OC)c2c1 [SJ000520915] | – | −298.8
COc1ccc2nc3cc(Cl)ccc3c(NCCCNCc3ccoc3)c2c1 [SJ000520916] | – | −299.4
CCCN(CCC)CCCNc1c2ccc(Cl)cc2nc2ccc(OC)cc12 [SJ000520917] | – | −288.2
CCCN(CCCNc1c2ccc(Cl)cc2nc2ccc(OC)cc12)Cc1ccncc1 [SJ000520918] | −1.797 | –
CCCN(CCCNc1c2ccc(Cl)cc2nc2ccc(OC)cc12)Cc1ccccn1 [SJ000520919] | – | −146.2
CCCN(CCCNc1c2ccc(Cl)cc2nc2ccc(OC)cc12)Cc1cccs1 [SJ000520920] | – | −164.1
CCCN(CCCNc1c2ccc(Cl)cc2nc2ccc(OC)cc12)Cc1sccc1C [SJ000520921] | −83.81 | –
CCCN(CCCNc1c2ccc(Cl)cc2nc2ccc(OC)cc12)Cc1ccsc1 [SJ000520922] | – | −258
CCCN(CCCNc1c2ccc(Cl)cc2nc2ccc(OC)cc12)Cc1ccc[nH]1 [SJ000520923] | – | −271
CCCN(CCCNc1c2ccc(Cl)cc2nc2ccc(OC)cc12)Cc1ccc(Br)s1 [SJ000520924] | −56.45 | –
CCCN(CCCNc1c2ccc(Cl)cc2nc2ccc(OC)cc12)Cc1ccccc1 [SJ000520925] | – | −127.9
CCCN(CCCNc1c2ccc(Cl)cc2nc2ccc(OC)cc12)Cc1ccccc1O [SJ000520926] | −91.84 | –
CCCN(CCCNc1c2ccc(Cl)cc2nc2ccc(OC)cc12)Cc1ccc(C)s1 [SJ000520927] | – | −124.8
CCCN(CCCNc1c2ccc(Cl)cc2nc2ccc(OC)cc12)Cc1ccccc1C(F)(F)F [SJ000520928] | 14.17 | –
CCCN(CCCNc1c2ccc(Cl)cc2nc2ccc(OC)cc12)Cc1ccc(Br)o1 [SJ000520929] | – | −137.3
CCCN(CCCNc1c2ccc(Cl)cc2nc2ccc(OC)cc12)Cc1cccc(OC)c1O [SJ000520930] | −81.96 | –
CCCN(CCCNc1c2ccc(Cl)cc2nc2ccc(OC)cc12)Cc1cc(F)ccc1OC [SJ000520931] | 1.847 | –
CCCN(CCCNc1c2ccc(Cl)cc2nc2ccc(OC)cc12)Cc1ccc(C)o1 [SJ000520932] | 0.9854 | –
CCCN(CCCNc1c2ccc(Cl)cc2nc2ccc(OC)cc12)Cc1cc(OC)ccc1O [SJ000520933] | – | −150.8
CCCN(CCCNc1c2ccc(Cl)cc2nc2ccc(OC)cc12)Cc1c(C)cc(C)cc1C [SJ000520934] | −46.32 | –
CCCN(CCCNc1c2ccc(Cl)cc2nc2ccc(OC)cc12)Cc1ccco1 [SJ000520935] | – | −202.6
CCCN(CCCNc1c2ccc(Cl)cc2nc2ccc(OC)cc12)CC1CC1 [SJ000520936] | – | −271.4
CCCN(CCCNc1c2ccc(Cl)cc2nc2ccc(OC)cc12)Cc1ccoc1 [SJ000520937] | – | −394.6
CCCN(CCCNc1c2ccc(Cl)cc2nc2ccc(OC)cc12)CC1CCCCC1 [SJ000520938] | – | −163.9

SMILES | TR-FRET signal [1] | TR-FRET signal [2]
CCCN(CCCNc1c2ccc(Cl)cc2nc2ccc(OC)cc12)CC(CC)CC [SJ000520939] | – | −160.3
CCCN(CCCNc1c2ccc(Cl)cc2nc2ccc(OC)cc12)Cc1ccc2c(c1)OCO2 [SJ000520940] | – | −193.5
CCCCCN(CCC)CCCNc1c2ccc(Cl)cc2nc2ccc(OC)cc12 [SJ000520941] | – | −210.3
CCCN(CCCNc1c2ccc(Cl)cc2nc2ccc(OC)cc12)Cc1ccc(F)c(F)c1 [SJ000520942] | 0.9703 | –
CCCN(CCCNc1c2ccc(Cl)cc2nc2ccc(OC)cc12)Cc1ccc(OC)cc1 [SJ000520943] | – | −241.4
CCCN(CCCNc1c2ccc(Cl)cc2nc2ccc(OC)cc12)Cc1ccccc1F [SJ000520944] | – | −118.6
CCCN(CCCNc1c2ccc(Cl)cc2nc2ccc(OC)cc12)Cc1cccc(F)c1 [SJ000520945] | −90.13 | –
CCCN(CCCNc1c2ccc(Cl)cc2nc2ccc(OC)cc12)Cc1ccc(F)cc1 [SJ000520946] | – | −141.7
CCCN(CCCNc1c2ccc(Cl)cc2nc2ccc(OC)cc12)Cc1ccccc1[N+](=O)[O-] [SJ000520947] | – | −228.3
CCCN(CCCNc1c2ccc(Cl)cc2nc2ccc(OC)cc12)Cc1cccc([N+](=O)[O-])c1 [SJ000520948] | −10.74 | –
CCCN(CCCNc1c2ccc(Cl)cc2nc2ccc(OC)cc12)Cc1ccc([N+](=O)[O-])cc1 [SJ000520949] | −9.039 | –
CCCN(CCCNc1c2ccc(Cl)cc2nc2ccc(OC)cc12)Cc1ccccc1OC [SJ000520950] | – | −271.1
CCCN(CCCNc1c2ccc(Cl)cc2nc2ccc(OC)cc12)Cc1ccccc1C(=O)O [SJ000520951] | – | −258.6
CCCN(CCCNc1c2ccc(Cl)cc2nc2ccc(OC)cc12)Cc1cccc2ccccc12 [SJ000520952] | −40.77 | –
CCCN(CCCNc1c2ccc(Cl)cc2nc2ccc(OC)cc12)Cc1ccc2ccccc2c1 [SJ000520953] | – | −129.1
CCCN(CCCNc1c2ccc(Cl)cc2nc2ccc(OC)cc12)Cc1cccc(C)c1 [SJ000520954] | – | −157.8
CCCN(CCCNc1c2ccc(Cl)cc2nc2ccc(OC)cc12)Cc1ccc(N(C)C)cc1 [SJ000520955] | −10.06 | –
CCCN(CCCNc1c2ccc(Cl)cc2nc2ccc(OC)cc12)Cc1ccc(Cl)cc1Cl [SJ000520956] | 9.598 | –
CCCN(CCCNc1c2ccc(Cl)cc2nc2ccc(OC)cc12)Cc1ccc(OC)c(OC)c1 [SJ000520957] | – | −175.5
CCCN(CCCNc1c2ccc(Cl)cc2nc2ccc(OC)cc12)CCCc1ccccc1 [SJ000520958] | – | −267.2
CCCN(CCCNc1c2ccc(Cl)cc2nc2ccc(OC)cc12)CC(C)CC (centres unmarked) [SJ000520959] | – | −264.8
CCCN(CCCNc1c2ccc(Cl)cc2nc2ccc(OC)cc12)Cc1cc(C)ccc1C [SJ000520960] | – | −119.3
CCCN(CCCNc1c2ccc(Cl)cc2nc2ccc(OC)cc12)Cc1cccc(OC)c1 [SJ000520961] | – | −244.6
CCCN(CCCNc1c2ccc(Cl)cc2nc2ccc(OC)cc12)CCc1ccccc1 [SJ000520962] | – | −591.7
CCCCCCN(CCC)CCCNc1c2ccc(Cl)cc2nc2ccc(OC)cc12 [SJ000520963] | – | −153.7
COc1ccc2nc3cc(Cl)ccc3c(NCCCNCc3cccn3C)c2c1 [SJ000520985] | – | −402.5

SMILES | TR-FRET signal [1] | TR-FRET signal [2]
COc1ccc2nc3cc(Cl)ccc3c(NCCCNCc3cccnc3)c2c1 [SJ000520986] | – | −409
COc1ccc2nc3cc(Cl)ccc3c(NCCCNCc3cn(C)c4ccccc34)c2c1 [SJ000520987] | – | −252.4
COc1ccc2nc3cc(Cl)ccc3c(NCCCNCc3cccc(OC(F)(F)F)c3)c2c1 [SJ000520988] | −73.54 | –
COc1ccc2nc3cc(Cl)ccc3c(NCCCNCc3nccs3)c2c1 [SJ000520989] | – | −355.2
COc1ccc2nc3cc(Cl)ccc3c(NCCCNCc3cccc(C(F)(F)F)c3)c2c1 [SJ000520990] | – | −408.1
COc1ccc2nc3cc(Cl)ccc3c(NCCCNCc3cccc4c3OCO4)c2c1 [SJ000520991] | – | −257.1
COc1ccc2nc3cc(Cl)ccc3c(NCCCNCc3ccc(OC(F)(F)F)cc3)c2c1 [SJ000520992] | – | −201
COc1ccc2nc3cc(Cl)ccc3c(NCCCNCc3cc(F)ccc3OC)c2c1 [SJ000520993] | – | −365.4
COc1ccc2nc3cc(Cl)ccc3c(NCCCNCCC(C)(C)C)c2c1 [SJ000520994] | – | −456.3
CCCCNCCCNc1c2ccc(Cl)cc2nc2ccc(OC)cc12 [SJ000520995] | – | −405.5
COc1ccc2nc3cc(Cl)ccc3c(NCCCNCc3cc(Br)cs3)c2c1 [SJ000520996] | – | −287.6
COc1ccc2nc3cc(Cl)ccc3c(NCCCNCc3cc4ccccc4o3)c2c1 [SJ000520997] | – | −146.7
COc1ccc(F)c(CNCCCNc2c3ccc(Cl)cc3nc3ccc(OC)cc23)c1 [SJ000520998] | – | −355
COc1ccc2nc3cc(Cl)ccc3c(NCCCNCc3c(F)cccc3C(F)(F)F)c2c1 [SJ000520999] | – | −116.7
COc1ccc2nc3cc(Cl)ccc3c(NCCCNCc3cc4ccccc4s3)c2c1 [SJ000521000] | – | −220.4
COc1ccc2nc3cc(Cl)ccc3c(NCCCNCc3cc(OC(F)(F)F)ccc3OC)c2c1 [SJ000521001] | – | −231.8
COc1ccc2nc3cc(Cl)ccc3c(NCCCNCc3cc(C(F)(F)F)ccc3OC)c2c1 [SJ000521002] | – | −290.2
COc1ccc2nc3cc(Cl)ccc3c(NCCCNCC3CCOC3)c2c1 (centres unmarked) [SJ000521003] | – | −442.3
COc1ccc2nc3cc(Cl)ccc3c(NCCCNCc3cccc(F)c3)c2c1 [SJ000521004] | – | −366.2
CCc1ccc(CNCCCNc2c3ccc(Cl)cc3nc3ccc(OC)cc23)cc1 [SJ000521005] | – | −390.4
COc1ccc2nc3cc(Cl)ccc3c(NCCCNCc3nccn3C)c2c1 [SJ000521006] | – | −279.9
CCCN(CCCNc1ccnc2cc(C(F)(F)F)ccc12)Cc1cncc(Br)c1 [SJ000521007] | 4.323 | –
CCCN(CCCNc1ccnc2cc(C(F)(F)F)ccc12)Cc1cccc(F)c1 [SJ000521008] | 27.85 | –
CCCN(CCCNc1ccnc2cc(C(F)(F)F)ccc12)Cc1ccc(CC)cc1 [SJ000521009] | 31.77 | –
CCCN(CCCNc1ccnc2cc(C(F)(F)F)ccc12)Cc1nc(C)cs1 [SJ000521010] | 0.8927 | –

From patent publication US20240246941A1, “SUBSTITUTED 4-(3-AMINOPROP-1-YL)AMINOQUINOLINE ANALOGS AS MODULATORS OF MELANOMA-ASSOCIATED ANTIGEN 11 UBIQUITIN LIGASE” (ST. JUDE CHILDREN'S RESEARCH HOSPITAL, INC., priority 2020, published 2024)
